Key:
[1] = test system: OVTOKO (Ovarian Carcinoma); test: combination Emax (second highest fraction inhibited in the dose matrix, 72 h); higher = more inhibition; extreme values may be limits of the assay
Method in brief: (§1)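 Cell lines in DMEM/F12 or RPMI with 10% FBS were plated in 1536-well plates, held 24 hours at 37°C, 5% CO2, then given two-drug dose matrices for 72 hours (DMSO typically 0.2%). Viability was read by CellTiter-Glo 2.0 luminescence and scaled as inhibition from 0 (vehicle wells) to 1 (blank wells). Combination Emax is the second-highest inhibition in the matrix; Bliss excess is observed combination effect minus expected EA + EB − EA·EB, EA and EB being single-agent effects.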

[2] = test system: NCI-H1155 (Non-Small Cell Lung Carcinoma); test: as above
Method in brief: as §1

[3] = test system: OVTOKO (Ovarian Carcinoma); test: Bliss excess, mean over the matrix (fraction); higher = more synergy
Method in brief: as §1

RT4 (Bladder Carcinoma) = test: as above
Method in brief: as §1

[4] = test system: NCI-H1563 (Lung Adenocarcinoma); test: as above
Method in brief: as §1

[5] = test system: PC-14 (Lung Adenocarcinoma); test: as above
Method in brief: as §1

[6] = test system: NCI-H196 (Small Cell Lung Carcinoma); test: as above
Method in brief: as §1

[7] = test system: HTC-C3 (Thyroid Gland Carcinoma); test: as above
Method in brief: as §1

[8] = test system: RL95-2 (Endometrial Carcinoma); test: as above
Method in brief: as §1

[9] = test system: AN3-CA (Endometrial Carcinoma); test: as above
Method in brief: as §1

[10] = test system: BALL-1 (B-Lymphoblastic Leukemia); test: as above
Method in brief: as §1

[11] = test system: SJRH30 (Rhabdomyosarcoma); test: as above
Method in brief: as §1

[12] = test system: Becker (Low Grade Glioma); test: as above
Method in brief: as §1

[13] = test system: NCI-H810 (Non-Small Cell Lung Carcinoma); test: as above
Method in brief: as §1

[14] = test system: COLO-684 (Endometrial Carcinoma); test: as above
Method in brief: as §1

[15] = test system: RMG-I (Ovarian Carcinoma); test: as above
Method in brief: as §1

[16] = test system: LOUCY (T-Lymphoblastic Leukemia); test: as above
Method in brief: as §1

KYM-1 (Rhabdomyosarcoma) = test: as above
Method in brief: as §1

[17] = test system: SK-MM-2 (Plasma Cell Myeloma); test: as above
Method in brief: as §1
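Throughout, for Bliss excess, mean over the matrix: after 72 h of two-drug dosing.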

SMILES | combination Emax [1] | combination Emax [2] | Bliss excess [3] | Bliss excess (RT4 (Bladder Carcinoma)) | Bliss excess [4] | Bliss excess [5] | Bliss excess [6] | Bliss excess [7] | Bliss excess [8] | Bliss excess [9] | Bliss excess [10] | Bliss excess [11] | Bliss excess [12] | Bliss excess [13] | Bliss excess [14] | Bliss excess [15] | Bliss excess [16] | Bliss excess (KYM-1 (Rhabdomyosarcoma)) | Bliss excess [17]
C[C@@H](c1ccc2nccn2c1)n1nnc2ncc(-c3cnn(C)c3)nc21 [Savolitinib] + CN(CC[C@H](CSC1=CC=CC=C1)NC2=C(C=C(C=C2)S(=O)(=O)NC(=O)C3=CC=C(C=C3)N4CCC(CC4)[C@H](C5=CC=CC=C5C6=CC=C(C=C6)Cl)O)S(=O)(=O)C(F)(F)F)CCO [AZD4320] (first compound max 1 µM, 7x7, partner max 1 µM) | 0.274 | 0.582 | -0.0718 | -0.0284 | -0.0266 | 0.0011 | -0.0847 | -0.0215 | -0.0297 | -0.0575 | -0.0078 | -0.0203 |  |  |  |  |  |  | 
Cn1cnc2c(F)c(Nc3ccc(Br)cc3Cl)c(C(=O)NOCCO)cc21 [Selumetinib] + CC(C)n1c(=O)n(C)c2cnc3cc(F)c(-c4ccc(OCCCN5CCCCC5)nc4)cc3c21 [AZD1390] (first compound max 10 µM, 7x7, partner max 0.3 µM) | 0.185 | 0.23 | -0.0509 | -0.0267 | -0.0229 | -0.0015 | -0.0561 | -0.0092 | -0.0663 | -0.0669 | -0.0156 | -0.031 | -0.007 | -0.0525 | -0.0257 | -0.0268 | -0.0166 | -0.0207 | -0.0084
COc1nnc2ccc(N3CCC(c4ccc(OCCN5CCN(C)C(=O)[C@H]5C)cc4)CC3)nn12 [AZD5153] + Cc1c2c(nn1C)CSCc1cc(n(C)n1)CSc1cc(c3ccccc3c1)OCCCc1c(C(=O)O)n(C)c3c-2c(Cl)ccc13 [AZD5991] (first compound max 1 µM, 7x7, partner max 1 µM) | 0.531 | 0.646 | -0.0536 | 0.0009 | 0.0341 | -0.0145 | 0.0074 | -0.0441 | -0.0414 | -0.0205 | -0.0409 | 0.0045 | -0.0815 | 0.0448 | -0.0106 | -0.0553 | 0.0187 | 0.0335 | -0.0156
CN(C)CCCOc1ccc(-c2ccc3ncc4c(c3c2)n(C2CCOCC2)c(=O)n4C)cn1 [AZD0156] + O=C(c1cc(Cc2n[nH]c(=O)c3ccccc23)ccc1F)N1CCN(C(=O)C2CC2)CC1 [Olaparib] (first compound max 3 µM, partner max 3 µM) | 0.33 | 0.452 | -0.0032 | -0.0044 | -0.0158 | -0.0009 | -0.0505 | -0.0502 | 0.11 | 0.0263 | 0.158 | 0.0963 | -0.0359 | 0.0541 | 0.0274 | -0.0428 | 0.125 | 0.185 | -0.161
CC(=O)c1c(C)c2cnc(Nc3ccc(N4CCNCC4)cn3)nc2n(C2CCCC2)c1=O [Palbociclib] + Cn1cnc2c(F)c(Nc3ccc(Br)cc3Cl)c(C(=O)NOCCO)cc21 [Selumetinib] (first compound max 10 µM, 7x7, partner max 10 µM) | 0.259 | 0.21 | -0.0503 | 0.0209 | 0.0092 | 0.0408 | -0.0617 | 0.0564 | -0.0144 | -0.0278 | -0.12 | -0.0131 | 0.0393 | -0.0697 | -0.04 | -0.0165 | -0.0138 | -0.0022 | -0.021
C[C@@H](c1ccc2nccn2c1)n1nnc2ncc(-c3cnn(C)c3)nc21 [Savolitinib] + Cc1c2c(nn1C)CSCc1cc(n(C)n1)CSc1cc(c3ccccc3c1)OCCCc1c(C(=O)O)n(C)c3c-2c(Cl)ccc13 [AZD5991] (first compound max 1 µM, 7x7, partner max 1 µM) | 0.199 | 0.114 | -0.0743 | 0.0148 | -0.0271 | -0.0134 | -0.0675 | -0.0373 | -0.0676 | -0.0365 | -0.052 | -0.0432 | 0.0103 | -0.0517 | -0.0158 | -0.0327 | 0.0369 | -0.0309 | -0.0395
COc1nnc2ccc(N3CCC(c4ccc(OCCN5CCN(C)C(=O)[C@H]5C)cc4)CC3)nn12 [AZD5153] + CC1(C)CCC(CN2CCN(c3ccc(C(=O)NS(=O)(=O)c4ccc(NCC5CCOCC5)c([N+](=O)[O-])c4)c(Oc4cnc5[nH]ccc5c4)c3)CC2)=C(c2ccc(Cl)cc2)C1 [Venetoclax] (first compound max 1 µM, 7x7, partner max 1 µM) | 0.507 | 0.71 | -0.0682 | -0.019 | -0.0496 | -0.03 | -0.0351 | -0.0648 | -0.0558 | -0.0347 | -0.0141 | -0.0536 | -0.0487 | -0.0474 | -0.0435 | -0.0456 | 0.0241 | -0.0124 | -0.0111

From the supplement of paper PMC11061612
